According to patent US20230346678A1, “TOPICAL COMPOSITIONS CONTAINING VITAMIN C” (priority 2022, published 2023):

Experiment: Oxygen radical absorbance capacity (ORAC) assay
Assay type: biochemical
Protocol: The combined anti-oxidant effects of combinations of ascorbic acid with various other known anti-oxidants was tested using the oxygen radical absorbance capacity (ORAC) assay according to the method described by Ou B, Hampsch Woodill M, Prior R. L. Development and validation of an improved oxygen radical absorbance capacity assay using fluorescein as the fluorescent probe. J Agric Food Chem. 2001, 49:4619 (using a slightly different ex/em wavelength readout and a narrower range of Trolox standards). This assay measures the ability of anti-oxidant “chain breakers” to inhibit the decline in disodium fluorescein (FL) fluorescence that is induced by the peroxyl radical generator, 2′,2′-Azobis (2-amidinopropane) dihydrochloride (AAPH). Distilled water was used as the negative control. Trolox (6-hydroxy-2,5,7,8-tetramethylchroman-2-carboxylic acid, a water-soluble analog of vitamin E sold by Hoffman-LaRoche having antioxidant properties) was used as the positive control.
The final ORAC values were calculated from the regression equation of net areas under the FL decay curve using a formula where Area Under the Curve (AUC)=1+(Point 1+Point 2+Point 3+ . . . +Point 15)/Point 1. The Trolox standards were then plotted as micromoles over AUC. The samples were solved using their AUC yielding the values in micromole (μmol) Trolox equivalent (TE) per ml. Applied BioSystems Cytofluor 4000 fluorometer & software was used for quantification. ORAC values of the test materials were expressed in μmoles TE/ml (TE=Trolox Equivalents).
All ingredients were stored at room temperature and then diluted with distilled water into aqueous stock solutions for testing. Further dilutions were made in distilled water within 24 h from testing.

[1] = second test run (second Table 3)

O=C(O[C@@H]1Cc2c(O)cc(O)cc2O[C@@H]1c1cc(O)c(O)c(O)c1)c1cc(O)c(O)c(O)c1 [0.1% EGCG, epigallocatechin gallate]
ORAC (first test run (first Table 3)): 7 μmoles TE/ml

CCOC1=C(O)C(=O)O[C@@H]1[C@@H](O)CO [0.5% Ethyl L-Ascorbic Acid, Ethyl L-Ascorbic Acid]
ORAC (first test run (first Table 3)): 13 μmoles TE/ml | ORAC [1]: 7 μmoles TE/ml

COc1cc(CCC(=O)CC(=O)CCc2ccc(O)c(OC)c2)ccc1O [0.5% Tetrahydrodiferuloyl-methane, Tetrahydrodiferuloyl-methane]
ORAC (first test run (first Table 3)): 4 μmoles TE/ml

O=C1O[C@H]([C@@H](O)CO)C([O-])=C1OP(=O)([O-])[O-].[Na+].[Na+].[Na+] [0.5% sodium ascorbyl phosphate, sodium ascorbyl phosphate]
ORAC (first test run (first Table 3)): 10 μmoles TE/ml

Cn1c(=O)c2c(ncn2C)n(C)c1=O [2% caffeine, caffeine]
ORAC (first test run (first Table 3)): 10 μmoles TE/ml | ORAC [1]: 0 μmoles TE/ml

O=C1O[C@H]([C@@H](O)CO)C(O)=C1O [10% ascorbic acid, ascorbic acid]
ORAC (first test run (first Table 3)): 751 μmoles TE/ml | ORAC [1]: 838 μmoles TE/ml

Cc1c(C)c2c(c(C)c1O)CCC(C)(C(=O)O)O2 (centres unmarked) [Trolox, 6-hydroxy-2,5,7,8-tetramethylchroman-2-carboxylic acid]
ORAC (first test run, positive control): 3940 µmol/g | ORAC (second test run, positive control): 4368 µmol/g
